In patent publication US11584747B2, “Substituted pyridopyrimidinonyl compounds useful as T cell activators” (BRISTOL-MYERS SQUIBB COMPANY, priority 2019, dated 2023) one finds IC50 and EC50 data, which are given here for 17 molecules.

pEC50, pIC50: −log10 of the molar value. Read-outs that look alike come from different tables or passages of the source.

For test [1], the target named is T1, human DGKα (Homo sapiens (Human), UniProt P23743). Kind of test: DGKα LIPGLO assay (extruded liposome substrate, ADP-Glo luminescence). The class given is biochemical. As to conditions: liposome assay; read-out: DGK alpha LIPGLO IC50.
T1 sequence (P23743 whole entry, looked up): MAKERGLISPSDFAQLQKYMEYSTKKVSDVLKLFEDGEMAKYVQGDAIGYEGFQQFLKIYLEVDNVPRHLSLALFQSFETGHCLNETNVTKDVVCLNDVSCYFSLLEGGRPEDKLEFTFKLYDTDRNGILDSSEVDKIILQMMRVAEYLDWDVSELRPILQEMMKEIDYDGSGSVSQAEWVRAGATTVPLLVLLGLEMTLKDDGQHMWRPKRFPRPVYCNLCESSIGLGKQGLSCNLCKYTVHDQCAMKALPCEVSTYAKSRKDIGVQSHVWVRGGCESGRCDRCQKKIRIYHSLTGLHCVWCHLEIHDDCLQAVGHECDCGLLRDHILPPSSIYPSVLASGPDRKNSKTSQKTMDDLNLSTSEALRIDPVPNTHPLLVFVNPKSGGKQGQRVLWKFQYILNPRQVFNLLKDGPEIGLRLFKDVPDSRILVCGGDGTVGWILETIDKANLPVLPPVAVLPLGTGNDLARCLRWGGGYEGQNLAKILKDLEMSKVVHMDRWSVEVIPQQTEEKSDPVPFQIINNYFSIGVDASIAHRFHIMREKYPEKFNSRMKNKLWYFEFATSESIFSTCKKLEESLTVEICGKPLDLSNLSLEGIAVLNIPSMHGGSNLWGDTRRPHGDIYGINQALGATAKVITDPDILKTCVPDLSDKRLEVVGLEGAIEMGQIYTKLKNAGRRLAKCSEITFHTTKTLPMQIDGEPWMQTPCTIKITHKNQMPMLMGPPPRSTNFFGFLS
For test [2], the system named is human venous whole blood (IFN-γ). Nature of the test: Human whole blood IFN-γ assay. The class given is cell-based. Particulars: whole blood, normalized to 3 μM reference compound as 100% activation, read-out: IFN-γ Whole Blood Normalized EC50. On the procedure:
Human venous whole blood (22.5 μL per well), obtained from healthy donors, was pre-treated with compounds for one hour at 37° C. in a humidified 95% air/5% CO2 incubator. The blood was stimulated with 2.5 μL anti-human CD3 and anti-CD28 mAb at a final concentration of 1 μg/mL each for 24 hours at 37° C. IFN-γ in the supernatants was measured using AlphLISA kit (Cat #AL217).

Test [3] addresses human DGKζ (Homo sapiens (Human), UniProt Q13574). Kind of test: DGKζ LIPGLO assay (extruded liposome substrate, ADP-Glo luminescence). The class given is biochemical.
Test [4] relates to whole blood (pERK). Nature of the test: pERK Whole Blood assay (Table A; no whole-blood pERK method described). Particulars: normalized. It counts as cell-based.
In test [5] the target is T1, human DGKα. Kind of test: DGKα ADPGLO assay (detergent/lipid micelle substrate). The class given is biochemical. As to conditions: truncated DGK alpha; read-out: DGK alpha ADPGLO (Truncated) IC50. The procedure:
DGK Alpha ADPGLO (Truncated) IC50 (uM)
The detergent/lipid micelle was prepared by combining 15 g phosphatidylserine (Avanti 840035P) and 1 g diacylglycerol (8008110) and dissolving into 150 mL chloroform in a 2 L round bottom flask. Chloroform was removed under high vacuum by rotary evaporation. […] The lipid/detergent solution was split into 5 mL aliquots and stored at −80° C.

For test [6], the system named is whole blood (pERK). Kind of test: pERK Whole Blood. It counts as cell-based.
[7] abbreviates: liposome assay, read-out: DGK zeta LIPGLO IC50.
[8] abbreviates: liposome (LIPGLO) assay, read-out: DGK zeta (liposome assay) IC50.

Chain of human DGKζ (Q13574 other isoform, or with tags, fused parts or gaps): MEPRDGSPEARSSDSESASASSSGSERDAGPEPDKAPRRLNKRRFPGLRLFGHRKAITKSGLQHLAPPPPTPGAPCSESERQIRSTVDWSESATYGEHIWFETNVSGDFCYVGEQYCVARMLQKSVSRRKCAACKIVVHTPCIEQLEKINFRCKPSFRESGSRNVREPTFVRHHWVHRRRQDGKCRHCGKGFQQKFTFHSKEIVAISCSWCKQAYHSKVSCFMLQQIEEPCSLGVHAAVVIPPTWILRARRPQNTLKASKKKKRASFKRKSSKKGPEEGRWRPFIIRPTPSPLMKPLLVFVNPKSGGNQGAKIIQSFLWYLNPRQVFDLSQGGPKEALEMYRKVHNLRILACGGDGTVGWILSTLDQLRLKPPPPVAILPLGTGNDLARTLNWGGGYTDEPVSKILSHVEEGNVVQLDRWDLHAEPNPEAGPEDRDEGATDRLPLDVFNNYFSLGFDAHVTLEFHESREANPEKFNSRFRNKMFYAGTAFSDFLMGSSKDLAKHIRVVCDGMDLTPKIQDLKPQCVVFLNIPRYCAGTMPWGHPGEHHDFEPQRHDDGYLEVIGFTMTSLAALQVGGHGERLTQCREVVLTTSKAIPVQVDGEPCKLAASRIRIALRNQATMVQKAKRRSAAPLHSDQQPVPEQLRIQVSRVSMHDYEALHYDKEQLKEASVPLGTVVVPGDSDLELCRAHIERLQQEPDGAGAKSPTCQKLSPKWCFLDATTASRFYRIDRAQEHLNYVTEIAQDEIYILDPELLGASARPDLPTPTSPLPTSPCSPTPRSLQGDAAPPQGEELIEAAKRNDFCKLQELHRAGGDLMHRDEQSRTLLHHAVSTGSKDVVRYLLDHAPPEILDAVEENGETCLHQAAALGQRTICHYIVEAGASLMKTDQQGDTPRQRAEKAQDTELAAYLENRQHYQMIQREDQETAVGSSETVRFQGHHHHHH

With `CCC(c1ccc(OC(F)(F)F)cc1)N1C[C@H](C)N(c2nc(=O)n(C)c3ccc(C#N)nc23)C[C@H]1CC` (single isomer, unassigned) [Example 84], the negative logarithm of the IC50 (pIC50) in test [1] is 5.49; in test [3] (setting [7]), 5.68; in test [4], 6.11; in test [5], 7.27. For the same molecule, in test [2], the negative logarithm of the EC50 (pEC50) is 6.17.
The like results for `CCC(c1ccc(OC(F)(F)F)cc1F)N1C[C@H](C)N(c2nc(=O)n(C)c3ccc(C#N)nc23)C[C@H]1CC` (single isomer, unassigned) [Example 85] were, in that order, 6.68, 7.04, 7.18, 7.18 and 7.66.
Take `CCC(c1ccc(C(F)(F)F)cc1)N1C[C@H](C)N(c2nc(=O)n(C)c3ccc(C#N)nc23)C[C@H]1CC` (single isomer, unassigned) [Example 89]: the pIC50 is 7.26 in test [1], 6.96 in test [3] (setting [7]), 6.59 in test [4] and 7.22 in test [5]. For the same molecule, the negative-log EC50 (pEC50) in test [2] (Homo sapiens) was 7.46.
`CC[C@@H]1CN(c2nc(=O)n(C)c3ccc(C#N)nc23)[C@@H](C)CN1C(c1ccc(OC(F)(F)F)cc1)c1ccccn1` (single isomer, unassigned) [Example 94]: the pIC50 in test [1] is 6.70; in test [3] (setting [7]), 7.07; in test [4] it was 6.66; in test [5], 7.80. The pEC50 in test [2] is 7.37.
Consider `CC[C@@H]1CN(c2nc(=O)n(C)c3ccc(C#N)nc23)[C@@H](C)CN1C(c1ccc(F)cc1)c1ccc(C(F)(F)F)nc1` (single isomer, unassigned) [Example 97], for which the pIC50 was 6.20 in test [1], 7.35 in test [3] (setting [7]), 6.42 in test [4] and 6.68 in test [5]. Further, in test [2] (Homo sapiens), the pEC50 is 7.00.
With `CC[C@@H]1CN(c2nc(=O)n(C)c3ccc(C#N)nc23)[C@@H](C)CN1C(c1ccc(F)cc1)c1ccc(C(F)(F)F)nc1` (single isomer, unassigned) [Example 98], the pIC50 in test [1] was 6.51; in test [3] (setting [7]) it was 7.26; in test [4] it was 6.85; in test [5] it was 7.59. The negative-log EC50 (pEC50) in test [2] is 7.06.
Consider `CC[C@@H]1CN(c2nc(=O)n(C)c3ccc(C#N)nc23)[C@@H](C)CN1C(c1ccc(OC(F)(F)F)cc1)c1cc(C2CC2)on1` (single isomer, unassigned) [Example 100], for which the pIC50 in test [1] was 6.60; in test [3] (setting [7]), 6.96; in test [4], 6.49; in test [5], 7.96. Moreover, in test [2] (Homo sapiens), the pEC50 was 7.36.
For the molecule `CC[C@H]1CN(C(c2ccc(F)cc2)c2nc(C3CC3)nn2C)[C@H](CC)CN1c1nc(=O)n(C)c2ccc(C#N)nc12` (single isomer, unassigned) [Example 295], the pIC50 in test [1] was 5.14; in test [3] (setting [7]) it was 6.09; in test [4], 7.00; in test [5] it was 7.00. The pEC50 in test [2] was 6.24.
With `CC[C@@H]1CN(c2nc(=O)n(C)c3ccc(C#N)nc23)[C@@H](C)CN1C(c1ccc(OC(F)(F)F)cc1)c1cc(C2CC2)on1` (stereo partly drawn) [Example 99, 4-((2S,5R)-4-((5-cyclopropylisoxazol-3-yl)(4-(trifluoromethoxy)phenyl)methyl)-5-ethyl-2-methylpiperazin-1-yl)-1-methyl-2-oxo-1,2-dihydropyrido[3,2-d]pyrimidine-6-carbonitrile], the negative logarithm of the IC50 (pIC50) in test [1] is 6.89; in test [3] (setting [7]), 6.92; in test [4], 6.85; in test [5], 8.40. Further, the pEC50 in test [2] (Homo sapiens) is 6.92.
For the molecule `CC[C@@H]1CN(c2nc(=O)n(C)c3ccc(C#N)nc23)[C@@H](C)CN1C(c1ccc(F)cc1)c1nc(C2CC2)no1` (stereo partly drawn) [Example 112, 4-((2S,5R)-4-((3-cyclopropyl-1,2,4-oxadiazol-5-yl)(4-fluorophenyl)methyl)-5-ethyl-2-methylpiperazin-1-yl)-1-methyl-2-oxo-1,2-dihydropyrido[3,2-d]pyrimidine-6-carbonitrile], the negative-log IC50 (pIC50) was 7.37 in test [1], 7.66 in test [3] (setting [7]), 7.82 in test [4] and 7.96 in test [5]. Besides, the pEC50 in test [2] is 7.96.
`CC[C@@H]1CN(c2nc(=O)n(C)c3ccc(C#N)nc23)[C@@H](C)CN1C(c1ccc(F)cc1)c1nc(C2CC2)no1` (stereo partly drawn) [Example 113, 4-((2S,5R)-4-((3-cyclopropyl-1,2,4-oxadiazol-5-yl)(4-fluorophenyl)methyl)-5-ethyl-2-methylpiperazin-1-yl)-1-methyl-2-oxo-1,2-dihydropyrido[3,2-d]pyrimidine-6-carbonitrile]: the negative logarithm of the IC50 (pIC50) in test [1] was 7.33; in test [3] (setting [7]), 7.34; in test [4], 6.77; in test [5] it was 8.00. Also, the negative-log EC50 (pEC50) in test [2] is 7.24.
For the molecule `CC[C@@H]1CN(c2nc(=O)n(C)c3ccc(C#N)nc23)[C@@H](C)CN1C(C)c1ccc(C2(C#N)CC2)cc1` (stereo partly drawn) [Example 326, 4-((2S,5R)-4-(1-(4-(1-cyanocyclopropyl)phenyl)ethyl)-5-ethyl-2-methylpiperazin-1-yl)-1-methyl-2-oxo-1,2-dihydropyrido[3,2-d]pyrimidine-6-carbonitrile], in test [6], the pEC50 was 5.46.
`CC[C@@H]1CN(c2nc(=O)n(C)c3ccc(C#N)nc23)[C@@H](C)CN1C(C)c1ccc(C(F)(F)F)c(CN2CCCCC2)c1` (stereo partly drawn) [Example 354, 4-((2S,5R)-5-ethyl-2-methyl-4-(1-(3-(piperidin-1-ylmethyl)-4-(trifluoromethyl)phenyl)ethyl)piperazin-1-yl)-1-methyl-2-oxo-1,2-dihydropyrido[3,2-d]pyrimidine-6-carbonitrile]: the pIC50 in test [3] (setting [8]) was 6.19. Further, in test [6], the pEC50 is 5.10.
The like results for `CC[C@@H]1CN(c2nc(=O)n(C)c3ccc(C#N)nc23)[C@@H](C)CN1C(C)c1ccc(C(F)(F)F)c(CN2CCCCC2)c1` (stereo partly drawn) [Example 355, 4-((2S,5R)-5-ethyl-2-methyl-4-(1-(3-(piperidin-1-ylmethyl)-4-(trifluoromethyl)phenyl)ethyl)piperazin-1-yl)-1-methyl-2-oxo-1,2-dihydropyrido[3,2-d]pyrimidine-6-carbonitrile] were, in that order, 4.38 and 5.17.
In turn, `CC[C@H]1CN(C(C)c2ccc(C(F)(F)F)cc2)[C@H](CC)CN1c1nc(=O)n(C)c2ccc(OCCOC)nc12` (stereo partly drawn) [Example 434, 4-((2S,5R)-2,5-diethyl-4-(1-(4-(trifluoromethyl)phenyl)ethyl)piperazin-1-yl)-6-(2-methoxyethoxy)-1-methylpyrido[3,2-d]pyrimidin-2(1H)-one] showed a pEC50 in test [6] of 4.70.
The same measure, in the same setting: as for `C[C@@H]1CN(c2nc(=O)n(C)c3ccc(C#N)nc23)[C@@H](C)CN1C(c1ccc(F)cc1)C12CC(C(F)(F)F)(C1)C2` (stereo partly drawn) [Example 451, 4-((2S,5R)-4-((4-fluorophenyl)(3-(trifluoromethyl)bicyclo[1.1.1]pentan-1-yl)methyl)-2,5-dimethylpiperazin-1-yl)-1-methyl-2-oxo-1,2-dihydropyrido[3,2-d]pyrimidine-6-carbonitrile], the figure is 4.70; as for `C[C@@H]1CN(c2nc(=O)n(C)c3ccc(C#N)nc23)[C@@H](C)CN1C(c1ccc(F)cc1)C12CC(C(F)(F)F)(C1)C2` (stereo partly drawn) [Example 452, 4-((2S,5R)-4-((4-fluorophenyl)(3-(trifluoromethyl)bicyclo[1.1.1]pentan-1-yl)methyl)-2,5-dimethylpiperazin-1-yl)-1-methyl-2-oxo-1,2-dihydropyrido[3,2-d]pyrimidine-6-carbonitrile], 4.70.
